Like-named read-outs stand apart in the source and are kept apart here.
Columns and labels:
[1] = system: TNFα release; experiment: LPS-induced TNFα release in PMA-differentiated U937 cells (ELISA); assay type: cell-based, human
Description: Effects of macrolides on lipopolysaccharide (LPS)-induced TNFα release in PMA-differentiated U937 cells. […] LPS-induced TNFα release was evaluated by ELISA. Values represent means of three experiments±SEM. ^##p<0.01 (vs. non-treatment control), *p<0.05, **p<0.01 (vs. treatment with LPS only).
The human monocytic cell line U937 was obtained from the American Type Culture Collection (ATCC, Rockville, Md.). PBMCs from COPD patients were obtained from Brompton hospital and separated by AccuSPIN (Sigma-Aldrich). Cells were cultured in complete growth medium (RPMI 1640) (Sigma-Aldrich) supplemented with 10% fetal bovine serum (FBS) and 1% L-glutamine at 37° C. in a humidified atmosphere with 5% CO2. U937 cells were differentiated into adherent macrophage-like morphology by exposure to PMA (50 ng/mL) for 48 hrs in complete growth medium. Cell viability was assessed microscopically by trypan blue staining. Cell toxicity was determined by MTT assay as needed. This study was approved by the ethics committee of the Royal Brompton Hospitals, and all subjects gave written informed consent.
TNFα and IL-8 concentrations in the supernatant of cell cultures were determined by sandwich ELISA according to the manufacturer's instructions (R&D Systems Europe, Abingdon, UK).
The results were expressed as the mean±SEM. Comparisons of data in two groups were performed using the Student's t test or the Wilcoxon signed rank test. Multiple comparisons were made by one-way ANOVA with post hoc test (Dunnett's) as appropriate. The difference was considered significant at p<0.05. IC50 values (50% inhibitory concentration) for macrolides for production of cytokines or MMP9 were calculated using Prism 4.0 (GraphPad Software Inc., San Diego, Calif.).

[2] = Rodent ADME studies using radiolabeled CEM-101; assay type: in vivo; details: IV 20 mg/kg
Description: This relationship was confirmed in rodent ADME studies using radiolabeled CEM-101. […] After IV dosing at 20 mg/kg, the data was more variable and lung/plasma ratios of 17.6 for males and 6.2 for females were observed.

[3] = Tissue distribution; assay type: in vivo, monkey
[4] = system: P. aeruginosa PSAR 461, PSAR 468; experiment: Time-kill macrobroth MICs; assay type: cell-based
Description: (§1) Original MICs of each strain to CEM-101 and other comparators were tested by CLSI microdilution methodology. Trays were obtained from Trek, Inc., Cleveland, Ohio. Time-kill macrobroth MIC dilution by CLSI was performed for all synergy testing.
(§2) Two of the MRSA strains were chosen and tested for synergy, together with the 4 Gram-negative strains mentioned above. Broth macrodilution formed the basis of MICs used in time-kill experiments, as detailed below. The kill kinetics of each drug was tested alone by incubating an initial inoculum of 5×10^5 to 5×10^6 cfu/mL with drug concentrations at the MIC, three dilutions above and three dilutions below the MIC (½, ¼ and ⅛×MIC). Viability counts were performed after 0, 3, 6, 12 and 24 h incubation at 37° C. in a shaking water bath by plating onto trypticase soy-5% sheep blood agar plates.

[5] = system: B. cepacia BCEP 953, BCEP 954; experiment: Time-kill macrobroth MICs; assay type: cell-based
Description: as §1, §2

[6] = Tissue distribution; assay type: in vivo; details: rat
Description: CEM-101 is well absorbed and distributed to the tissue. In the rat at 250 mg/kg/d, mean lung and liver concentrations 5 of CEM-101 were 17 and 15-fold higher than in plasma.

[7] = Plasma and ELF pharmacokinetics in healthy mice; assay type: in vivo
Description: (§3) CEM-101 PK data were obtained from healthy mice administered single CEM-101 doses ranging from 0.625 to 40 mg/kg. Plasma and ELF were collected over 24 h (3 mice/time point) and assayed for CEM-101. Urea in plasma and ELF was used to correct ELF concentrations. Neutropenic mice infected with 10^8 CFU of 1 of 5 S. pneumoniae isolates via inhalation were administered daily CEM-101 doses (0.156 to 160 mg/kg) via oral gavage. Dose-fractionation was performed for 1 isolate; CEM-101 was administered to the other 4 isolates as a Q6h or Q12h regimen. PK and PK-PD were evaluated using S-ADAPT 1.56.
(§4) A 3-compartment model with a parallel first-order and capacity-limited clearance and a capacity-limited first pass effect with fitted lag-times best described the plasma and ELF data (r2=0.98 and 0.83 for observed vs fitted concentrations, respectively). ELF to total- and free-drug (f) plasma (based on protein binding of 91.8% in mice) AUC0-24 ratios were 0.22 and 2.7, respectively. ELF and f plasma AUC0-24:MIC ratios were most predictive of efficacy (r2=0.85 for ELF and f plasma). […] AUC0-24:MIC ratio was the PK-PD index most predictive of efficacy for CEM-101. PK-PD targets based on these relationships will inform dose selection for future clinical studies.

[8] = Protein binding; assay type: in vitro ADME; details: mice
Description: as §4

[9] = system: S. pneumoniae; experiment: PK-PD analysis in neutropenic murine-lung infection model; assay type: in vivo; details: neutropenic mice
Description: Using a murine-lung infection model, epithelial lining fluid (ELF) and plasma PK-PD measures most closely associated with CEM-101 efficacy against S. pneumoniae and targets based on PK-PD relationships for such indices were identified.
as §3

[10] = Tissue levels in repeat-dose toxicology studies; assay type: in vivo, rodents and non human primates; details: repeated dosing
[11] = Homo sapiens, U-937, U937 cells, at 333 μM, read-out: IC50, LPS-induced TNFα release: NE at 333 μM
[12] = PMA-differentiated U937 cells, read-out: IC50, LPS-induced TNFα release

For CC[C@H]1OC(=O)[C@H](C)[C@@H](O[C@H]2C[C@@](C)(OC)[C@@H](O)[C@H](C)O2)[C@H](C)[C@@H](O[C@@H]2O[C@H](C)C[C@H](N(C)C)[C@H]2O)[C@](C)(O)C[C@@H](C)CN(C)[C@H](C)[C@@H](O)[C@]1(C)O [AZM, azithromycin], the “effect on TNFα production” value ([1]; 33 to 333 μM (FIG. 3)) was “did not inhibit” and the IC50 [1, 11] was > 333 µM.
In the case of CC[C@H]1OC(=O)[C@@](C)(F)C(=O)[C@H](C)[C@@H](O[C@@H]2O[C@H](C)C[C@H](N(C)C)[C@H]2O)[C@](C)(OC)C[C@@H](C)C(=O)[C@H](C)[C@H]2N(CCCCn3cc(-c4cccc(N)c4)nn3)C(=O)O[C@]12C [CEM-101, solithromycin], the lung/plasma ratio ([2]; females) is reported as 6.2, the lung/plasma ratio ([2]; males) is reported as 17.6 and the IC50 [1, 12] is reported as 41.6 ± 1.9 µM. The “effect on TNFα production” value ([1]; at 100 μM) was “significantly inhibited”, the “heart concentration relative to plasma” value ([3]; monkey) was 54 fold and the “liver concentration relative to plasma” value ([3]; monkeys, 200 mg/kg/d) was 711 fold. The “lung concentration relative to plasma” value ([3]; monkeys, 200 mg/kg/d) was 503 fold, the “Time-kill Macrobroth MIC” value ([4]; strain PSAR 461) was 64.0 µg/mL and the “Time-kill Macrobroth MIC” value ([4]; strain PSAR 468) was 32.0 µg/mL. For the same molecule, the “Time-kill Macrobroth MIC” value ([5]; strain BCEP 953) was 8.0 µg/mL, the “Time-kill Macrobroth MIC” value ([5]; strain BCEP 954) was 32.0 µg/mL and the “heart concentration relative to plasma” value [6] was 5 fold. The “mean liver concentration relative to plasma” value ([6]; 250 mg/kg/d) was 15 fold, the “mean lung concentration relative to plasma” value ([6]; 250 mg/kg/d) was 17 fold and the “ELF to total-drug plasma AUC0-24 ratio” value [7] was 0.22. For the same molecule, the “ELF to free-drug (f) plasma AUC0-24 ratio” value ([7]; based on protein binding of 91.8%) was 2.7, the protein binding [8] was 91.8% and the “ELF AUC0-24:MIC ratio associated with 1-log 10 CFU reduction from baseline” value [9] was 15.1. The “ELF AUC0-24:MIC ratio associated with 2-log 10 CFU reduction from baseline” value [9] was 59.8, the “ELF AUC0-24:MIC ratio associated with net bacterial stasis” value [9] was 1.26 and the “f plasma AUC0-24:MIC ratio associated with 1-log 10 CFU reduction from baseline” value [9] was 6.31. The “f plasma AUC0-24:MIC ratio associated with 2-log 10 CFU reduction from baseline” value [9] was 12.8, the “f plasma AUC0-24:MIC ratio associated with net bacterial stasis” value [9] was 1.65 and the “tissues with highest concentrations” value [10] was “highest in liver, spleen, lung, and salivary gland”.
In the case of CC[C@H]1OC(=O)[C@H](C)[C@@H](O[C@H]2C[C@@](C)(OC)[C@@H](O)[C@H](C)O2)[C@H](C)[C@@H](O[C@@H]2O[C@H](C)C[C@H](N(C)C)[C@H]2O)[C@](C)(OC)C[C@@H](C)C(=O)[C@H](C)[C@@H](O)[C@]1(C)O [CLR, clarithromycin], the IC50 [1, 12] is reported as 426 µM and the “effect on TNFα production” value ([1]; at a higher concentration (333 μM)) is reported as “modest effects”.
In the case of CC[C@H]1OC(=O)[C@H](C)[C@@H](O[C@H]2C[C@@](C)(OC)[C@@H](O)[C@H](C)O2)[C@H](C)[C@@H](O[C@@H]2O[C@H](C)C[C@H](N(C)C)[C@H]2O)[C@](C)(O)C[C@@H](C)C(=O)[C@H](C)[C@@H](O)[C@]1(C)O [ERY, erythromycin], the “effect on TNFα production” value ([1]; 33 to 333 μM (FIG. 3)) is reported as “did not inhibit” and the IC50 [1, 11] is reported as > 333 µM.
With CC[C@H]1OC(=O)[C@H](C)C(=O)[C@H](C)[C@@H](O[C@@H]2O[C@H](C)C[C@H](N(C)C)[C@H]2O)[C@](C)(OC)C[C@@H](C)C(=O)[C@H](C)[C@H]2N(CCCCn3cnc(-c4cccnc4)c3)C(=O)O[C@]12C [TEL, telithromycin] the IC50 ([1]; Homo sapiens, U-937, read-out: IC50, LPS-induced TNFα release: NE at 100 μM, U937 cells, at 100 μM) was > 100 µM and the “effect on TNFα production” value ([1]; at 100 μM) was “did not inhibit”.

Reference: patent US9861616B2, “Methods for treating respiratory diseases and formulations therefor” (priority 2013, dated 2018)
